# Data published in patent US9512169B2, “3-substituted estra-1,3,5(10),16-tetraene derivatives, methods for the production thereof, pharmaceutical preparations containing same, and use thereof for the production of medicaments” (BAYER PHARMA AKTIENGESELLSCHAFT, priority 2012, dated 2016).
# “And” between values parts separate entries of the source, which are not always exact repeats. Equal values may be shown once.
# How the values were obtained:
# AKR1C3 [1] = target: T1, AKR1C3 (Homo sapiens (Human), UniProt P42330); experiment: AKR1C3 inhibition in a cell-based system (HEK293 cells transfected with AKR1C3 expression plasmid, coumberol fluorescence); conditions: HEK293 cells transfected with AKR1C3, incubation overnight; repeated lines = independent determinations; read-out: Cellular AKR1C3 inhibition IC50
# T1 sequence (P42330 whole entry): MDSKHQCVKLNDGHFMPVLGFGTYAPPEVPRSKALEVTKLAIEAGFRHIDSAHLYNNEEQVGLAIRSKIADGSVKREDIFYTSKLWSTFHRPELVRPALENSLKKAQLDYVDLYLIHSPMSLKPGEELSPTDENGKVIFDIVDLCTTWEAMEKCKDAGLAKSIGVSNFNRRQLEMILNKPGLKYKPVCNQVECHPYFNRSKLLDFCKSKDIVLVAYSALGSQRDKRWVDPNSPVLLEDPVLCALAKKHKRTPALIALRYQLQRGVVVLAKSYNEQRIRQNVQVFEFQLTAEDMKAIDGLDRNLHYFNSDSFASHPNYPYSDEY
# Procedure: The inhibition of AKR1C3 by the substances described in the present invention was measured in a cell-based assay using […] as substrate for the AKR1C3 (Halim, M., Yee, D. J., and Sames, D., J. AM. CHEM. SOC. 130, 14123-14128 (2008) and Yee, D. J., Balsanek, V., Bauman, D. R., Penning, T. M., and Sames, D., Proc. Natl. Acad. Sci. USA 103, 13304-13309 (2006)) (cf. Example 20).
# The cell system used were HEK293 cells (ATCC, USA) (cell culture medium: DMEM, 1.5 g glucose, 10% FCS, PSG). The cells were transfected in an AKR1C3 expression plasmid (pCMV6-AC-AKR1C3, GenBank Accession No. NM_003739.4) overnight (X-tremeGENE HP, Roche). The next morning, the cells were sown in black 96well cell culture plates at a cell density of 40000 cells/well (Greiner Bio-One, Frickenhausen, Germany). After 7 h, the cells were incubated with the test substances (dissolved in 100× concentration in DMSO, final concentration between 10^−11M and 10^−5M) and […] (dissolved in cell culture medium, final concentration 5×10^−6M) overnight. The next morning, the fluorescence of coumberol was measured at 535 nm (excitation at 355 nm) using a suitable measuring instrument (Mithras, from Berthold). The fluorescence intensity was used as a measure of the amount of coumberol formed and thus of the enzyme activity of AKR1C3. The data were normalized (transfected cells without inhibitor, only DMSO=0% inhibition; transfected cells, 10 μM inhibitor EM-1404 [F. Labrie et al. U.S. Pat. No. 6,541,463, 2003]=100% inhibition), and the IC50 values were calculated using a 4-parameter fit.
# In the cell-based assay described above, the pharmacological substances claimed were examined for their inhibitory activity on the AKR1C3 enzyme (see Table 2).
# AKR1C3 [2] = target: T1, AKR1C3; experiment: AKR1C3 binding by isothermal titration calorimetry; parameters: exothermal binding enthalpy: unit not given here; conditions: ITC, 25° C., PBS buffer
# Procedure: Binding of Example compound 1 to the AKR1C3 enzyme was measured by isothermal titration calorimetry. The degree of affinity of a given compound can be stated using the dissociation constant (KD value). Human AKR1C3 enzyme was prepared as described in Example 20. For ITC experiments, human AKR1C3 protein was transferred by gel permeation into a PBS buffer consisting of 137 mM NaCl, 2.7 mM KCl, 10 mM Na2HPO4, 2 mM KH2PO4 and 1 mM tris(2-carboxyethyl)phosphine hydrochloride. The compounds were dissolved in 100% DMSO at a concentration of 10 mM and then diluted with PBS buffer. Isothermal titration calorimetry experiments (ITC experiments) were carried out using an ITC200 titration calorimeter (GE Healthcare, Northampton, Mass., USA) at a temperature of 25° C. The change in enthalpy resulting from the injection of the protein was determined by integration of the calorimetric signal. The data were analyzed with Origin 7.0 (GE Healthcare, Northampton, Mass., USA). Heat of dilution values were determined using the last injection of the titration in question and subtracted prior to curve fitting. The protein concentration in the injection syringe was in the range from 80 to 120 μM, and the concentration of the compound to be measured was in the range from 5 to 20 μM.
# AKR1C3 [3] = target: T1, AKR1C3; experiment: AKR1C3 enzyme inhibition assay (Coumberone to Coumberol fluorescence); type: biochemical; conditions: recombinant human AKR1C3, 15 min pre-incubation, 90 min at 22° C.; repeated lines = two experimental determinations
# Procedure: The AKR1C3-inhibitory activity of the substances of the present invention was measured in the AKR1C3 assay described in the paragraphs below.
# Essentially, the enzyme activity is measured by quantification of the Coumberol from Coumberone (Halim, M., Yee, D. J., and Sames, D., J. AM. CHEM. SOC. 130, 14123-14128 (2008) and Yee, D. J., Balsanek, V., Bauman, D. R., Penning, T. M., and Sames, D., Proc. Natl. Acad. Sci. USA 103, 13304-13309 (2006)). In this test, the increase of the highly fluorescent Coumberol by NADPH- (nicotinamide adenine dinucleotide phosphate)-dependent reduction of the non-fluorescent Coumberone by AKR1C3 can be determined.
# The enzyme used was recombinant human AKR1C3 (Aldo-keto reductase family 1 member C3) (GenBank Accession No. NM_003739). This was expressed in E. coli as GST (glutathione S transferase) fusion protein and purified by glutathione Sepharose affinity chromatography. The GST was removed by digestion with thrombin and subsequent size exclusion chromatography (Dufort, I., Rheault, P., Huang, X F., Soucy, P., and Luu-The, V., Endocrinology 140, 568-574 (1999)).
# For the assay, 50 nl of a 100-fold concentrated solution of the test substance in DMSO were pipetted into a black low-volume 384-well microtiter plate (Greiner Bio-One, Frickenhausen, Germany), 2.0 μl of a solution of AKR1C3 in assay buffer [50 mM potassium phosphate buffer pH 7, 1 mM DTT, 0.0022% (w/v) Pluronic F-127, 0.01% BSA (w/v) and protease inhibitor cocktail (Complete, EDTA-free Protease Inhibitor Cocktail from Roche)] were added and the mixture was incubated for 15 min to allow pre-binding of the substances to the enzyme prior to the enzyme reaction. The enzyme reaction was then started by addition of 3 μl of a solution of NADPH (16.7 μM→final concentration in 5 μl of assay volume is 10 μM) and Coumberone (0.5 μM→final concentration in 5 μl of assay volume is 0.3 μM) in assay buffer, and the resulting mixture was incubated at 22° C. for the reaction time of 90 min. The concentration of the AKR1C3 was adapted to the respective activity of the enzyme preparation and adjusted such that the assay was carried out in the linear range. Typical concentrations were in the region of 1 nM. The reaction was stopped by addition of 5 μl of a stop solution consisting of the inhibitor EM-1404 [F. Labrie et al. U.S. Pat. No. 6,541,463, 2003] (2 μM→final concentration in […] is 1 μM). The fluorescence of the Coumberole was then measured at 520 nm (excitation at 380 nm) using a suitable measuring instrument (Pherastar from BMG Labtechnologies). The intensity of the fluorescence was used as a measure of the amount of Coumberole formed and thus of the enzyme activity of AKR1C3. The data were normalized (enzyme reaction without inhibitor=0% inhibition; all other assay components, but no enzyme=100% inhibition).
# As described, the pharmacological substances claimed were examined for their inhibitory activity on the AKR1C3 enzyme (see Table 1). The compounds claimed show a strong inhibition of AKR1C3 in vitro (IC50 values <200 nM) and in most cases even IC50 values <50 nM.
structure (smiles),measurement,setting,value
"C[C@]12CC[C@@H]3c4ccc(CCC(=O)O)cc4CC[C@H]3[C@@H]1CC=C2c1cncc(F)c1 [Example 1, 3-[17-(5-Fluoropyridin-3-yl)estra-1,3,5(10),16-tetraen-3-yl]propanoic acid]",IC50,AKR1C3 [1],40 nM and 52 nM and 157 nM
same,exothermal binding enthalpy,AKR1C3 [2],−1500
same,Kd,AKR1C3 [2]; read-out: KD value (dissociation constant),230 nM
same,IC50,AKR1C3 [3],8 nM and 7.6 nM
